Drawing on US20030004172A1, “Fused pyrimidinone matrix metalloproteinase inhibitors” (priority 2001, published 2003), this text covers IC50 for 35 molecules.

The assay addresses MMP-13CD (catalytic domain of collagenase-3) (Homo sapiens, UniProt P45452). Put plainly: Thiopeptolide substrate hydrolysis inhibition assay, MMP-13CD. Conditions: Table I; thiopeptolide substrate, HEPES pH 7.0, 22° C.; read-out: MMP-13CD IC50. The class given is biochemical. The source says: Thiopeptolide substrates show virtually no decomposition or hydrolysis at or below neutral pH in the absence of a matrix metalloproteinase enzyme.
Take `Cn1c(=O)n(CCCCOc2ccccc2)c(=O)c2cc(C(=O)OCc3ccccc3)sc21` [Example 121, 1-Methyl-2,4-dioxo-3-(4-phenoxy-butyl)-1,2,3,4-tetrahydro-thieno[2,3-d]pyrimidine-6-carboxylic acid benzyl ester]: the IC50 stood at 0.25 µM.
For `COc1cccc(CNC(=O)c2cc3c(=O)n(CC=C(C)C)c(=O)n(C)c3s2)c1` [Example 292] the value was 10 µM; for `Cc1ccc(CCNC(=O)c2cc3c(=O)n(Cc4ccccc4)c(=O)n(C)c3s2)c(C)c1` [Example 362, 3-Benzyl-1-methyl-2,4-dioxo-1,2,3,4-tetrahydro-thieno[2,3-d]pyrimidine-6-carboxylic acid[2-(2,4-dimethyl-phenyl)-ethyl]-amide], over 100 µM.
Turning to `CCC1(COC(=O)c2cc3c(=O)n(Cc4ccccc4)c(=O)n(C)c3s2)COC1` [Example 173, 3-Benzyl-1-methyl-2,4-dioxo-1,2,3,4-tetrahydro-thieno[2,3-d]pyrimidine-6-carboxylic acid 3-ethyl-oxetan-3-ylmethyl ester], the IC50 is over 100 µM.
In the case of `Cn1c(=O)n(Cc2ccccc2)c(=O)c2cc(C(=O)OCc3ccc(C(F)(F)F)cc3)sc21` [Example 156, 3-Benzyl-1-methyl-2,4-dioxo-1,2,3,4-tetrahydro-thieno[2,3-d]pyrimidine-6-carboxylic acid 4-trifluoromethyl-benzyl ester], the IC50 worked out at 0.18 µM.
As for `COC(=O)c1ccc(Cn2c(=O)c3cc(C(=O)NCc4ccc(OC)cc4)sc3n(C)c2=O)cc1C` [Example 238, 4-[6-(4-Methoxy-benzylcarbamoyl)-1-methyl-2,4-dioxo-1,4-dihydro-2H-thieno[2,3-d]pyrimidin-3-ylmethyl]-2-methyl-benzoic acid methyl ester], the IC50 worked out at 0.0555 µM.
Regarding `C#CCn1c(=O)c2cc(C(=O)OCc3ccccc3)sc2n(C)c1=O` [Example 130, 1-Methyl-2,4-dioxo-3-prop-2-ynyl-1,2,3,4-tetrahydro-thieno[2,3-d]pyrimidine-6-carboxylic acid benzyl ester], the IC50 is 0.097 µM.
On to `COc1cccc(CNC(=O)c2cc3c(=O)n(Cc4ccc(C5(C(=O)O)CC5)cc4)c(=O)n(C)c3s2)c1` [Example 94, 1-{4-[6-(3-Methoxy-benzylcarbamoyl)-1-methyl-2,4-dioxo-1,4-dihydro-2H-thieno[2,3-d]pyrimidin-3-ylmethyl]-phenyl}-cyclopropanecarboxylic acid], for which the IC50 turned out to be 0.00535 µM.
For `Cn1c(=O)n(Cc2ccccc2)c(=O)c2cc(C(=O)NCCc3cccc(C(F)(F)F)c3)sc21` [Example 349, 3-Benzyl-1-methyl-2,4-dioxo-1,2,3,4-tetrahydro-thieno[2,3-d]pyrimidine-6-carboxylic acid[2-(3-trifluoromethyl-phenyl)-ethyl]-amide], the IC50 was over 100 µM.
In the case of `COc1ccc(CNC(=O)c2cc3c(=O)n(C/C=C/C(=O)O)c(=O)n(C)c3s2)cc1` [Example 226, (E)-4-[6-(4-Methoxy-benzylcarbamoyl)-1-methyl-2,4-dioxo-1,4-dihydro-2H-thieno[2,3-d]pyrimidin-3-yl]-but-2-enoic acid], the IC50 stood at 4.9 µM.
In the case of `Cn1c(=O)n(Cc2ccccc2)c(=O)c2cc(C(=O)NCCc3ccncc3)sc21` [Example 325, 3-Benzyl-1-methyl-2,4-dioxo-1,2,3,4-tetrahydro-thieno[2,3-d]pyrimidine-6-carboxylic acid (2-pyridin-4-yl-ethyl)-amide], the IC50 is over 100 µM.
`CC(CNC(=O)c1cc2c(=O)n(Cc3ccccc3)c(=O)n(C)c2s1)c1ccccc1` (centres unmarked) [Example 330, 3-Benzyl-1-methyl-2,4-dioxo-1,2,3,4-tetrahydro-thieno[2,3-d]pyrimidine-6-carboxylic acid (2-phenyl-propyl)-amide]: the IC50 is over 100 µM.
Regarding `O=C(OCCc1ccccc1)c1cc2c(=O)n(Cc3ccccc3)c(=O)[nH]c2s1` [Example 12, 3-Benzyl-2,4-dioxo-1,2,3,4-tetrahydro-thieno[2,3-d]pyrimidine-6-carboxylic acid 2-phenylethyl ester], the IC50 is over 100 µM.
For the molecule `CCCCCC#CCn1c(=O)c2cc(C(=O)NCc3ccc(OC)cc3)sc2n(C)c1=O` [Example 230, 1-Methyl-3-oct-2-ynyl-2,4-dioxo-1,2,3,4-tetrahydro-thieno[2,3-d]pyrimidine-6-carboxylic acid 4-methoxy-benzylamide], the IC50 came out at 0.077 µM.
For the molecule `COc1ccc(CNC(=O)c2cc3c(=O)n(CC=C(C)C)c(=O)n(C)c3s2)cc1` [Example 267], the half-inhibitory concentration (IC50) is 1.1 µM.
As for `COc1ccc(CNC(=O)c2cc3c(=O)n(CCS(=O)(=O)c4ccc(F)cc4)c(=O)n(C)c3s2)cc1` [Example 268], the IC50 worked out at 3.6 µM.
In the case of `COc1cccc(CNC(=O)c2cc3c(=O)n(Cc4ccc5c(c4)OCC5)c(=O)n(C)c3s2)c1` [Example 85, 3-(2,3-Dihydro-benzofuran-6-ylmethyl)-1-methyl-2,4-dioxo-1,2,3,4-tetrahydro-thieno[2,3-d]pyrimidine-6-carboxylic acid 3-methoxy-benzylamide], the IC50 was 0.0475 µM.
As for `COc1cccc(CNC(=O)c2cc3c(=O)n(Cc4ccc(C(=O)O)cc4)c(=O)n(C)c3s2)c1` [Example 79, 4-[6-(3-Methoxy-benzylcarbamoyl)-1-methyl-2,4-dioxo-1,4-dihydro-2H-thieno[2,3-d]pyrimidin-3-ylmethyl]-benzoic acid], the IC50 came to 0.00205 µM.
With `CN1CCC(OC(=O)c2cc3c(=O)n(Cc4ccccc4)c(=O)n(C)c3s2)CC1` [Example 161, 3-Benzyl-1-methyl-2,4-dioxo-1,2,3,4-tetrahydro-thieno[2,3-d]pyrimidine-6-carboxylic acid 1-methyl-piperidin-4-yl ester], the IC50 came out at 11 µM.
`COc1ccc(CNC(=O)c2cc3c(=O)n(CCC(=O)c4ccc(F)cc4)c(=O)n(C)c3s2)cc1` [Example 270]: the IC50 worked out at 1.8 µM.
For the molecule `COC(=O)c1ccc(Cn2c(=O)c3cc(C(=O)NCc4cccc(OC)c4)sc3n(C)c2=O)cc1C` [Example 241, 4-[6-(3-Methoxy-benzylcarbamoyl)-1-methyl-2,4-dioxo-1,4-dihydro-2H-thieno[2,3-d]pyrimidin-3-ylmethyl]-2-methyl-benzoic acid methyl ester], the IC50 stood at 0.0195 µM.
With `COC(=O)c1ccc(Cn2c(=O)c3cc(C(=O)NCc4cccc(OC)c4)sc3n(C)c2=O)cc1` [Example 84, 4-[6-(3-Methoxy-benzylcarbamoyl)-1-methyl-2,4-dioxo-1,4-dihydro-2H-thieno[2,3-d]pyrimidin-3-ylmethyl]-benzoic acid methyl ester], the concentration for half-maximal inhibition (IC50) was 0.0205 µM.
Consider `CCC(CC)n1c(=O)c2cc(C(=O)NCc3cccc(OC)c3)sc2n(C)c1=O` [Example 290], for which the IC50 came out at 15 µM.
As for `COc1ccc(CCCOC(=O)c2cc3c(=O)n(Cc4ccccc4)c(=O)n(C)c3s2)cc1` [Example 189, 3-Benzyl-1-methyl-2,4-dioxo-1,2,3,4-tetrahydro-thieno[2,3-d]pyrimidine-6-carboxylic acid 3-(4-methoxy-phenyl)-propyl ester], the IC50 stood at 4.9 µM.
With `COc1ccc(CNC(=O)c2cc3c(=O)n(Cc4ccc5nonc5c4)c(=O)n(C)c3s2)cc1` [Example 274], the half-inhibitory concentration (IC50) stood at 0.018 µM.
For `Cn1c(=O)n(Cc2ccccc2)c(=O)c2cc(C(=O)OCC3CCCCO3)sc21` (centres unmarked) [Example 178, 3-Benzyl-1-methyl-2,4-dioxo-1,2,3,4-tetrahydro-thieno[2,3-d]pyrimidine-6-carboxylic acid tetrahydro-pyran-2-ylmethyl ester] the value was over 100 µM; for `CCn1c(=O)c2cc(C(=O)OCc3ccccc3)sc2n(C)c1=O` [Example 142, 3-Ethyl-1-methyl-2,4-dioxo-1,2,3,4-tetrahydro-thieno[2,3-d]pyrimidine-6-carboxylic acid benzyl ester], 0.39 µM; for `CCC#CCn1c(=O)c2cc(C(=O)NCc3ccc(OC)cc3)sc2n(C)c1=O` [Example 265], 0.038 µM.
As to `Cn1c(=O)n(Cc2ccccc2)c(=O)c2cc(C(=O)NC3CCc4ccccc43)sc21` (centres unmarked) [Example 353, 3-Benzyl-1-methyl-2,4-dioxo-1,2,3,4-tetrahydro-thieno[2,3-d]pyrimidine-6-carboxylic acid indan-1-ylamide], the IC50 was over 100 µM.
As for `CC(CO)Cn1c(=O)c2cc(C(=O)OCc3ccccc3)sc2n(C)c1=O` (centres unmarked) [Example 134, 3-(3-Hydroxy-2-methyl-propyl)-1-methyl-2,4-dioxo-1,2,3,4-tetrahydro-thieno[2,3-d]pyrimidine-6-carboxylic acid benzyl ester], the IC50 stood at 1.5 µM.
Turning to “3-Benzyl-1-methyl-2,4-dioxo-1,2,3,4-tetrahydro-thieno[2,3-d]pyrimidine-6-carboxylic acid ((S)-2,2-dimethyl-4-phenyl-1,3-dioxinan-5-yl)-amide [Example 341]”, the IC50 came to 14 µM.
Turning to `Cn1c(=O)n(Cc2ccccc2)c(=O)c2cc(C(=O)NCCc3ccc(Cl)cc3Cl)sc21` [Example 363, 3-Benzyl-1-methyl-2,4-dioxo-1,2,3,4-tetrahydro-thieno[2,3-d]pyrimidine-6-carboxylic acid[2-(2,4-dichloro-phenyl)-ethyl]-amide], the IC50 worked out at 30 µM.
In the case of `Cn1c(=O)n(Cc2ccccc2)c(=O)c2cc(C(=O)NCc3ccc(Cl)c(Cl)c3)sc21` [Example 359, 3-Benzyl-1-methyl-2,4-dioxo-1,2,3,4-tetrahydro-thieno[2,3-d]pyrimidine-6-carboxylic acid 3,4-dichloro-benzylamide], the concentration for half-maximal inhibition (IC50) is 1 µM.
With `COc1ccc(CNC(=O)c2cc3c(=O)n(CCC(=O)c4ccc(Cl)cc4)c(=O)n(C)c3s2)cc1` [Example 271], the IC50 turned out to be 5.9 µM.
With `Cn1c(=O)n(Cc2ccc(S(C)(=O)=O)cc2)c(=O)c2cc(C(=O)OCc3ccccc3)sc21` [Example 101, 3-(4-Methanesulfonyl-benzyl)-1-methyl-2,4-dioxo-1,2,3,4-tetrahydro-thieno[2,3-d]pyrimidine-6-carboxylic acid benzyl ester], the IC50 is 0.034 µM.

For orientation: IC50 means the concentration at which inhibition is half-maximal.
